Experimental data from patent US9144578B2, “Fixed-dose association of phytate and zinc” (Universitat De Les Illes Balears, priority 2006, dated 2015).
“Also recorded” adds a separate entry of the source.

What was measured:
[1] = in vitro kinetics of precipitation of hydroxyapatite (Example 1, FIG. 1); details: [phosphate]=1.5 mM, [Ca^2+]=60 mg/l, pH=7.5
Method: In said FIG. 1 it is shown that the first curve corresponds to direct precipitation without phytate or Zn^2+. The second (Zn^2+) consists of the addition of 0.038 μM of Zn^2+. […] The third curve (Phytate) corresponds to the precipitation of hydroxyapatite in the presence of 0.38 μM of phytate. […] Finally, the last graph (Phytate+Zn^2+) corresponds to the precipitation in the presence of 0.38 μM of phytate and 0.038 μM of Zn^2+ (phytate-Zn molar ratio 10:1).
An in vitro system was designed to study the kinetics of precipitation of hydroxyapatite. A system using the following experimental conditions: [phosphate]=1.5 mM, [Ca^2+]=60 mg/l, pH=7.5, was used. The kinetics of precipitation of the hydroxyapatite was recorded with a Shimadzu (UV-120-02) spectrophotometer using 3 ml plastic vials and recording the absorbance every 5 minutes at 550 nm.

[2] = in vitro kinetics of precipitation of hydroxyapatite (Example 2, FIG. 2); details: [phosphate]=2.5 mM, [Ca^2+]=60 mg/l, pH=7.5
Method: In said FIG. 2 it is shown that the first series corresponds to the direct precipitation without phytate or Zn^2+. The second consists of the addition of 0.3 μM of Zn^2+. […] The third series corresponds to the precipitation of hydroxyapatite in the presence of 1.5 μM of phytate.
Finally, two series using 1.5 μM phytate and two different concentrations of zinc: Zn^2+: 0.3 μM (phytate-Zn molar ratio 5:1) and 0.15 μM (phytate-Zn molar ratio 10:1), respectively, are shown.
With the same system as in example 1, a system using the following experimental conditions: [phosphate]=2.5 mM, [Ca^2+]=60 mg/l, pH=7.5, was used. The kinetics of precipitation of the hydroxyapatite was recorded with a Shimadzu (UV-120-02) spectrophotometer using 3 ml plastic vials and recording the absorbance every 5 minutes at 550 nm.

SMILES	inhibiting effect on precipitation of hydroxyapatite ([1]; 0.038 μM of Zn^2+)	inhibiting effect on precipitation of hydroxyapatite ([2]; 0.3 μM of Zn^2+)	inhibiting effect on precipitation of hydroxyapatite ([1]; 0.38 μM of phytate)	inhibiting effect on precipitation of hydroxyapatite ([2]; 1.5 μM of phytate)
[Zn+2] [Zn^2+]	no inhibiting effect	no inhibiting effect; also recorded: does not show any inhibiting effect	–	–
O=P(O)(O)O[C@H]1[C@H](OP(=O)(O)O)[C@@H](OP(=O)(O)O)[C@H](OP(=O)(O)O)[C@@H](OP(=O)(O)O)[C@H]1OP(=O)(O)O [Phytate, Myo-inositol hexaphosphate]	–	–	significant inhibiting effect	significant inhibiting effect
